Publication PMC7582476, “Discovery of Novel Indoleamine 2,3-Dioxygenase 1 (IDO1) and Histone Deacetylase 1 (HDAC1) Dual Inhibitors Derived from the Natural Product Saprorthoquinone” (Molecules, 2020)

Tests used:
[1] = target: T1, IDO1 (Homo sapiens, UniProt P14902); test: IDO1 enzymatic assay; type: biochemical; conditions: for inhibition at 10 µM: Tables 2 and 3, read-out: IDO1 % Inhibition at 10 μM (converted); for IC50: mean ± SD of at least two independent assays
T1 construct: No. 20160706
Experimental: (1) Prepare 100× compound of the final desired highest inhibitor concentration in reaction by 100% DMSO. For example, if compounds test at 10 μM, then prepare 1 mM of compound solution in this step. Then dilute compound with DMSO in 3-fold mode to obtain different concentrations. Mark as source plate. (2) Add 100 μL of 100% DMSO to column 1 and column 12 for background control and no compound high control respectively.
Transfer 2 μL of each well from the 96-well source plate to a 96-well assay plate.
• (3) Enzyme Reaction • Prepare 2× enzyme solution. Add IDO-1 in assay buffer. • Prepare 2× substrate solution. Add L-tryptophan, ascorbate, methylene blue, catalase in the assay buffer. • Assay plate already contains 2 μL of compound in 100% DMSO. • Transfer 2× enzyme solution to the assay plate. Add 100 μL of 2× enzyme solution to each well of the 96-well assay plate. • Incubate at room temperature for 10 min. • Transfer […] to each well of the 96-well assay plate. • Read OD321 kinetically by Spectramax (Molecular Devices, LLC, San Jose, CA, USA). • (4) Curve Fitting • Copy data from Spectramax program. Percent inhibition = (max-conversion)/(max − min) × 100. “max” stands for high control; “min” stands for low control. • Fit the data in XL-Fit to obtain IC50 values. Equation used is: Y = Bottom + (Top − Bottom)/(1 + 10^((LogIC50 − X) × Hill Slope)

[2] = test system: A549 cell line; test: Anti-proliferation assay in A549 cell line (CellTiter-Glo); type: cell-based; conditions: Homo sapiens; A549 cells, 48 h, CTG assay
Experimental: Cell viability was measured by the CellTiter-Glo Luminescent (CTG) assay. A549 cells (ATCC, Cat. No.CCL-185) were seeded (2000 cells/well) in 96-well plates and cells were left to incubate at 37 °C for 24 h. After 24 h, prepare compounds with 5-fold dilution in DMSO to the compound plate (200-fold of the final concentration) and transfer 5 μL from the compound plate to 95 μL intermediate medium in the intermediate plate (10-fold of the final concentration). Then transfer 10 μL from the intermediate plate to the cell plates. The final DMSO is 0.5%. After continuing to incubate for 48 h, add 50 μL CTG reagent to each well and read luminescence according to CTG product manual.

[3] = target: T2, HDAC1 (Homo sapiens, UniProt Q13547); test: HDAC enzymatic assay; type: biochemical; conditions: mean ± SD of at least two independent assays
T2 construct: purchased BPS Bioscience Inc. 50051
T2 sequence (Q13547 whole entry): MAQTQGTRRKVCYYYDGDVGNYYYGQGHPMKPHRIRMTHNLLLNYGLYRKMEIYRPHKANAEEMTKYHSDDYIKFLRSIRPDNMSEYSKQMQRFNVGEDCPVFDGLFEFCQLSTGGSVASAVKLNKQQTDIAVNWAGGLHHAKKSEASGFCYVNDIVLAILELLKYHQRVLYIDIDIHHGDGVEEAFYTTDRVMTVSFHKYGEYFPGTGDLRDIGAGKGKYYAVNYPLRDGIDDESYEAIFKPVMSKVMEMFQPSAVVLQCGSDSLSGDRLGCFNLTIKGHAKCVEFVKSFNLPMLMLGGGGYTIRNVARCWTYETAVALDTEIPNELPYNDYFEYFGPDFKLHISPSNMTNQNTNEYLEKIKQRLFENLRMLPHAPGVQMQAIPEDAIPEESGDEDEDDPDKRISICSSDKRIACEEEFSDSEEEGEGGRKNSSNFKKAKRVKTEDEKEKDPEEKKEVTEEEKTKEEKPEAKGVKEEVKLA
Experimental: • (1) Prepare 1× assay buffer (modified Tris Buffer). • (2) Compound serial dilution: Transfer compounds to assay plate by Echo in 100% DMSO. The final fraction of DMSO is 1%. • (3) Prepare enzyme solution in 1× assay buffer. • (4) Add trypsin and Ac-peptide substrate in 1× assay buffer to make the substrate solution. • (5) Transfer 15 μL of enzyme solution to assay plate or for low control transfer 15 μL of 1× assay buffer. • (6) Incubate at room temperature for 15 min. • (7) Add 10 μL of substrate solution to each well to start reaction. • (8) Incubate at room temperature for 60 min. • (9) Read the plate on Synergy MX with excitation at 355 nm and emission at 460 nm. • (10) Curve fitting: Fit the data in Excel to obtain inhibition values using Equation (1).
Inh% = (Max − Signal)/(Max − Min) × 100(1)
Fit the data in XL-Fit to obtain IC50 values using Equation (2); Y = Bottom + (Top − Bottom)/(1 + 10^((LogIC50 − X) × Hill Slope))(2)
Y is %inhibition and X is compound concentration.

T1 sequence (P14902 whole entry): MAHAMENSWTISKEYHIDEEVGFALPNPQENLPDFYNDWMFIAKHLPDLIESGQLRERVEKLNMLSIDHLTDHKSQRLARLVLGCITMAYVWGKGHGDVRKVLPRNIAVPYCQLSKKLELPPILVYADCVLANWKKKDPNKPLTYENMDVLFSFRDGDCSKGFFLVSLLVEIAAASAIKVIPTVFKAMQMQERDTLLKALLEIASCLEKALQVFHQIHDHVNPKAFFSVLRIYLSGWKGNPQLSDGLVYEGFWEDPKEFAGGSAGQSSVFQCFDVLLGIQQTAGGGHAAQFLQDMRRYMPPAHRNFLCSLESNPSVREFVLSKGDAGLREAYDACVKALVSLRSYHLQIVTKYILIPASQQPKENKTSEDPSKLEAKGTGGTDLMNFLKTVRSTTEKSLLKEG

| inhibition at 10 µM [1] | IC50 [1] | IC50 [2] | IC50 [3] | SMILES |
| --- | --- | --- | --- | --- |
| 80% | 0.58 ± 0.11 µM | 19.1 µM | 34.9 ± 0.75 µM | Cc1ccc2c(c1CCC(=O)NCCCC(=O)Nc1ccccc1N)C(=O)C(=O)C(C(C)C)=C2 [Compound 33b, N-(2-Aminophenyl)-4-(3-(6-isopropyl-2-methyl-7,8-dioxo-7,8-dihydronaphthalen-1-yl)propanamido)-butanamide] |
| 90% | 0.55 ± 0.02 µM | > 20 µM | 39.5 ± 0.74 µM | Cc1ccc2c(c1CCC(=O)NCCCCC(=O)Nc1ccccc1N)C(=O)C(=O)C(C(C)C)=C2 [Compound 33c, N-(2-Aminophenyl)-5-(3-(6-isopropyl-2-methyl-7,8-dioxo-7,8-dihydronaphthalen-1-yl)propanamido)-pentanamide] |
| 89% |  | > 20 µM | > 100 µM | Cc1ccc2c(c1CCC(=O)NCCC(=O)Nc1ccccc1N)C(=O)C(=O)C(C(C)C)=C2 [Compound 33a, N-(2-aminophenyl)-3-(3-(6-isopropyl-2-methyl-7,8-dioxo-7,8-dihydronaphthalen-1-yl)propanamido)-propanamide] |
